Experimental findings from ChEMBL document CHEMBL4433253, “Development of a novel inducer for EBV lytic therapy” (Bioorg Med Chem Lett, 2019) are described below.

The subject of series [1] is Human gammaherpesvirus 4. Nature of the series: Reactivation of latent EBV infected in human MUTU-I cells incubated for 48 hrs by steady-glo luciferase reporter assay relative to C60. Set-up: concentration or dose not given beside the values. In kind it is functional.
For series [2], the system named is Human gammaherpesvirus 4. Nature of the series: Reactivation of latent EBV infected in human MUTU-I cells incubated for 48 hrs by steady-glo luciferase reporter assay. Type of series: functional, organism-based. The conditions noted are these: human gammaherpesvirus 4, MUTU-I.
Series [3] in a line: Stability in mouse plasma. Type of series: ADME, cell-free. The settings on record: read-out: Stability.
Series [4] can be described thus: Stability in human plasma. Type of series: ADME, cell-free. The settings on record: read-out: Stability.
Series [5] in a line: Half life in mouse liver microsomes. Type of series: ADME, Microsome.
Series [6] in a line: Half life in human liver microsomes. Type of series: ADME, Microsome.
A short description of series [7]: Aqueous solubility of compound in pH 7.4 PBS buffer. Type of series: physicochemical.
The test system of series [8] is Human gammaherpesvirus 4. Nature of the series: Reactivation of latent EBV in human SNU-719 cells xenografted NSG mouse assessed as increase in BZLF1 protein level in tumor mass at 30 mg/kg, ip qd for 4 days starting from 28 days post infection by immunoblot analysis. Type of series: functional, organism-based.
For series [9], the system named is Human gammaherpesvirus 4. Nature of the series: Reactivation of latent EBV in human AGS cells xenografted NSG mouse assessed as increase in BZLF1 protein level in tumor mass at 25 mg/kg, ip qd for 3 days starting from 35 days post infection by immunoblot analysis.

Molecules are shown by their SMILES. Converted amounts (≈) assume the structure as drawn. The source made the active and inactive calls. The calls are words filed in the database; no cut-off is given here. A value given as a limit tells only on which side of the number the result lay.

The molecule `COc1ccc(C2c3[nH]c4ccccc4c3CCN2C(=O)Nc2ccccc2OC)cc1` (centres undefined) returned an Activity in the series on Human gammaherpesvirus 4 [1] of 15%. The molecule `COc1ccc(C2NCCc3c2[nH]c2ccc(Cl)cc32)cc1` (centres undefined) registered a concentration for a half-maximal effect (EC50) with Human gammaherpesvirus 4 [2] of 215 nM.

Molecule `COc1ccc(C2c3[nH]c4ccc(Cl)cc4c3CCN2C(=O)c2ccccc2C(F)(F)F)cc1` (centres undefined) had a half-maximal effective concentration (EC50) in the series with Human gammaherpesvirus 4 [2] of 1580 nM. The molecule `COc1ccc(C2c3[nH]c4ccc(Cl)cc4c3CCN2C(=O)Nc2cccc(OC)c2)cc1` (centres undefined) returned an Activity with Human gammaherpesvirus 4 [1] of 43%. In the series with Human gammaherpesvirus 4 [2], `O=C(c1cccc(CN2CCOCC2)c1)N1CCc2c([nH]c3ccc(Cl)cc23)C1c1ccc(Cl)cc1` (centres undefined) displayed a 50% effective concentration (EC50) of 277 nM. `COc1ccc(NC(=O)N2CCc3c([nH]c4ccc(Cl)cc34)C2c2ccc(OC)cc2)cc1` (centres undefined) came in with an Activity in the series on Human gammaherpesvirus 4 [1] of 31%.

As to `COC(=O)c1ccccc1NC(=O)N1CCc2c([nH]c3ccc(Cl)cc23)C1c1ccc(OC)cc1` (centres undefined), the EC50 with Human gammaherpesvirus 4 [2] was found to be 157 nM. For the same molecule, the half-life in series [3] and in series [4] was greater than 6 h each time. The t1/2 in [5] was greater than 1.5 h; in [6], 1.3 h. The molecule also returned a solubility in [7] of less than 10 µg/mL. Turning to `COCCOCCOCCOc1ccc(C2c3[nH]c4ccc(Cl)cc4c3CCN2C(=O)Nc2ccccc2C(=O)OC)cc1` (centres undefined), the outcome with Human gammaherpesvirus 4 [8] and in the series with Human gammaherpesvirus 4 [9] was Active. For `COCCOCCOCCOc1ccc(C2c3[nH]c4ccc(Cl)cc4c3CCN2C(=O)Nc2ccccc2Cl)cc1` (centres undefined), the result in the series on Human gammaherpesvirus 4 [8] and in the series on Human gammaherpesvirus 4 [9] was Active. With `COc1ccc(C2c3[nH]c4ccc(Cl)cc4c3CCN2C(=O)Nc2ccc(OC)cc2OC)cc1` (centres undefined), a half-maximal effect in the series on Human gammaherpesvirus 4 [2] (EC50) was put at 1130 nM. The same measure, in the same setting: with `COc1ccc(C2c3[nH]c4ccc(Cl)cc4c3CCN2S(=O)(=O)c2ccccc2OC)cc1` (centres undefined) the figure was 4010 nM; with `COc1ccc(C2c3[nH]c4ccc(Cl)cc4c3CCN2C(=O)c2ccc(C(F)(F)F)cc2)cc1` (centres undefined), 434 nM; with `COc1ccc(C2c3[nH]c4ccc(Cl)cc4c3CCN2C(=O)c2ccc(Cl)cc2)cc1` (centres undefined), 228 nM. On to `COC(=O)c1ccccc1NC(=O)N1CCc2c([nH]c3ccccc23)C1c1ccc(OC)cc1` (centres undefined), for which, in the series on Human gammaherpesvirus 4 [1], the Activity is 14%. In the series with Human gammaherpesvirus 4 [2], `COc1cccc(C(=O)N2CCc3c([nH]c4ccc(Cl)cc34)C2c2ccc(O)cc2)c1` (centres undefined) showed a concentration giving a half-maximal response (EC50) of 310 nM. In the series with Human gammaherpesvirus 4 [8], the result was Active. For `COC(=O)c1sccc1NC(=O)N1CCc2c([nH]c3ccc(OC)cc23)C1c1ccc(C)cc1` (centres undefined), the midpoint of the response with Human gammaherpesvirus 4 [2], the EC50, lay at 576 nM. `COc1ccc(C2c3[nH]c4ccc(Cl)cc4c3CCN2C(=O)Nc2ccccc2OC)cc1` (centres undefined) gave an EC50 in the series with Human gammaherpesvirus 4 [2] of 169 nM. Also, the Activity in the series with Human gammaherpesvirus 4 [1] turned out to be 79%.

For the molecule `COc1ccc(C2c3[nH]c4ccc(Cl)cc4c3CCN2C(=O)c2cccc(CN3CCOCC3)c2)cc1` (centres undefined), the EC50 in the series with Human gammaherpesvirus 4 [2] was 277 nM.

Consider `COc1ccc(C2c3[nH]c4ccc(Cl)cc4c3CCN2C(=O)c2ccccc2Cl)cc1` (centres undefined), for which a half-maximal response in the series with Human gammaherpesvirus 4 [2] (EC50) required 2430 nM. Same read-out and setting: the same measure for `COc1ccc(C(=O)N2CCc3c([nH]c4ccc(Cl)cc34)C2c2ccc(OC)cc2)cc1` (centres undefined): 154 nM.

For `COC(=O)c1cccc(NC(=O)N2CCc3c([nH]c4ccc(Cl)cc34)C2c2ccc(OC)cc2)c1` (centres undefined), the Activity with Human gammaherpesvirus 4 [1] is given as 17%. `CCOC(=O)c1ccccc1NC(=O)N1CCc2c([nH]c3ccc(OC)cc23)C1c1ccc(C)cc1` (centres undefined): the EC50 in the series on Human gammaherpesvirus 4 [2] was determined as 1080 nM. For `COc1ccc(C2c3[nH]c4ccc(Cl)cc4c3CCN2S(=O)(=O)c2ccc(OC)cc2)cc1` (centres undefined), the EC50 with Human gammaherpesvirus 4 [2] was found to be 8030 nM. In the series with Human gammaherpesvirus 4 [2], `COc1ccc(C2c3[nH]c4ccc(Cl)cc4c3CCN2C(=O)c2cccc(OC)c2)cc1` (centres undefined) showed a concentration for a half-maximal effect (EC50) of 168 nM. In addition, the half-life in series [3] and in [4] was greater than 6 h each time. Further, the t1/2 in [5] is 0.517 h; in series [6] it was greater than 1.5 h. The solubility in [7] was found to be 166 µg/mL (≈ 371 µM). Turning to `COc1ccc(C2c3[nH]c4ccc(Cl)cc4c3CCN2C(=O)c2ccccc2OC)cc1` (centres undefined), the EC50 with Human gammaherpesvirus 4 [2] worked out at 4270 nM.
